From patent US10195189B2, “2-phenethenyltetrahydro isoquinolines useful as anti-HIV compounds” (priority 2014, dated 2019)

Test system: HIV-1 NL4-3 viral clone expressing Renilla luciferase
Test: microbe, parasite or virus in culture
Assay type: cell-based
Conditions: Human immunodeficiency virus 1, NL43, MT2, 96 h
Protocol: Protocol for MT-2 Spread Assay
The present assay was used to screen candidate antiviral compounds by quantification of virus spread and production over several rounds of infection in vitro. MT-2, a HIV-1 permissive human T-cell line, was seeded in microtiter plates and was simultaneously treated with serially diluted compound and inoculated with a HIV-1 NL4-3 viral clone engineered to express Renilla luciferase in place of Net Following treatment, the culture was incubated for 96 hours. After the incubation, media was collected and used to estimate relative infectivity on the indicator cell line, TZM-bl. Additionally, viral spread was quantified by measuring luciferase activity via a commercially available luciferase substrate. In parallel, MT-2 cells were seeded and inoculated with mock virus in the presence of serially diluted compound. Compound toxicity was quantified 96 hours after treatment with AlamarBlue.
MT-2 (NIH Aids reagent program 237) cells were grown and maintained in an incubator at 37° C. with 5% CO2 using a basal medium of RPMI-1640 supplemented with 10% FBS. Cells were seeded in 100 μl at 2×10^4 cells/well in white walled 96-well microtiter plates. Candidate compounds were 3-fold serially diluted in the appropriate solvent. Solvent without compound was used as a no drug reference. Cells were inoculated at a multiplicity of 0.027 with an HIV-1 NL4-3 virus stock engineered to express Renilla luciferase in place of Net Diluted virus stock was first added to serially diluted compound. Compound and virus were delivered to cells in an equal volume (100 μl) and treated cultures were returned to the incubator for 96 hours. In parallel, plates for cytotoxicity estimates were prepared in the same way except cells were plated in clear walled 96-well microtiter plates and were mock infected.
At 96 hours post infection, 100 μl virus containing culture supernatant was collected from the treated and infected cultures and serially diluted in DMEM supplemented with 10% FBS, 1% sodium pyruvate, and 20 μg/ml DEAE dextran. One day prior, TZM-bl (ATCC PTA-5659) were cultured in basal medium of DMEM supplemented with 10% FBS and 1% sodium pyruvate and seeded at 7.5×10^3 cells/well in black walled 96-well microtiter plates. Diluted virus containing culture supernatant was transferred to TZM-bl cultures and incubated for 48 hours at 37° C. with 5% CO2. Infected TZM-bl cultures were fixed for 5 minutes with a 1% formaldehyde/0.2% gluteraldehyde/PBS solution then washed three times with PBS. Fixed cultures were incubated at 37° C. for 25 minutes with a 200 μg/ml MUG (4-Methylumbelliferyl β-D-[…])/DMEM solution. The reaction was stopped with an equal volume of 1M sodium carbonate and read at 360, 449 nm on fluorescence plate reader (Biotek).
At 96 hours post infection, 100 μl of culture supernatant was removed from the treated and infected cultures and EnduRen live cell substrate (Promega) was added at a final concentration 1.3 μg/ml. Cells were incubated for 1.5 hours at 37° C. with 5% CO2 then read on a luminescence plate reader (Biotek).
For all assays, data was imported into Accelrys Assay Explorer 3.3. In Assay Explorer, % inhibition (antiviral or cytotoxicity) was calculated using the solvent control as a reference by the following equation: 1−(SignalCompound/SignalReference). The % Inhibition and compound concentration data was fitted using the following 4-parameter logistic model (Assay Explorer model 42):
[formula] where X is compound concentration, Y is % inhibition, D is the maximum % Inhibition (constrained to 100%), C is IC50 value or inflection point, B is the hill slope, and A is the minimum % inhibition (constrained to 0%). The IC50 value is reported as the EC50 or CC50 depending on the assay endpoint. EC50 represents the effective concentration at which virus replication is inhibited by 50 percent. CC50 represents the concentration that results in the death of 50 percent of the host cells. […]

Going from COc1ccc(/C=C/C2NCCc3cc(OCc4ccccc4)c(OC)cc32)cc1CN1CCCCC1 (centres unmarked) [EM, 6-Benzyloxy-7-methoxy-1-[(E)-2-[4-methoxy-3-(1-piperidylmethyl)phenyl]vinyl]-1,2,3,4-tetrahydroisoquinoline] to COc1ccc(/C=C/C2NCCc3cc(OCc4ccccc4)c(OC)cc32)cc1Br (centres unmarked) [AR, 6-Benzyloxy-1-[(E)-2-(3-bromo-4-methoxy-phenyl)vinyl]-7-methoxy-1,2,3,4-tetrahydroisoquinoline], the EC50 rises from 320 nM to 800 nM (2.5-fold).

First: COc1cc(/C=C/C2NCCc3cc(OCc4ccccc4)c(OC)cc32)cc(OC)c1 (centres unmarked) [AT, 6-Benzyloxy-1-[(E)-2-(3,5-dimethoxyphenyl)vinyl]-7-methoxy-1,2,3,4-tetrahydroisoquinoline]
Second: COc1cccc(/C=C/C2NCCc3cc(OCc4ccccc4)c(OC)cc32)c1 (centres unmarked) [EJ, 6-Benzyloxy-7-methoxy-1-[(E)-2-(3-methoxyphenyl)vinyl]-1,2,3,4-tetrahydroisoquinoline]
The EC50 of the first is 3.9-fold lower: 770 nM for the first, 2980 nM for the second.

First: COc1cc2c(cc1OCc1ccccc1)CCNC2/C=C/c1sccc1C (centres unmarked) [BS, 6-Benzyloxy-7-methoxy-1-[(E)-2-(3-methyl-2-thienyl)vinyl]-1,2,3,4-tetrahydroisoquinoline]
Second: COc1cc2c(cc1OCc1ccccc1)CCNC2/C=C/c1ccnn1C (centres unmarked) [Example AK, 6-benzyloxy-7-methoxy-1-[(E)-2-(2-methylpyrazol-3-yl)vinyl]-1,2,3,4-tetrahydroisoquinoline]
The EC50 of the first is 3.1-fold lower: 2870 nM for the first, 8870 nM for the second.

First: COc1cc2c(cc1OCc1ccccc1)CCNC2/C=C/c1cc(C(C)C)c(OC)cc1C (centres unmarked) [BW, 6-Benzyloxy-1-[(E)-2-(5-isopropyl-4-methoxy-2-methyl-phenyl)vinyl]-7-methoxy-1,2,3,4-tetrahydroisoquinoline]
Second: COc1cc(C)c(/C=C/C2NCCc3cc(OCc4ccccc4)c(OC)cc32)cc1OC (centres unmarked) [Example AH, 6-benzyloxy-1-[(E)-2-(4,5-dimethoxy-2-methyl-phenyl)vinyl]-7-methoxy-1,2,3,4-tetrahydroisoquinoline]
The EC50 of the first is 63-fold higher: 840 nM for the first, 13.3 nM for the second.

Compared with COc1cc(Cl)c(/C=C/C2NCCc3cc(OCc4ccccc4)c(OC)cc32)cc1OCc1ccccc1 (centres unmarked) [Example AC, 6-benzyloxy-1-[(E)-2-(5-benzyloxy-2-chloro-4-methoxy-phenyl)vinyl]-7-methoxy-1,2,3,4-tetrahydroisoquinoline], CCc1cc(OC)c(OCc2ccccc2)cc1/C=C/C1NCCc2cc(OCc3ccccc3)c(OC)cc21 (centres unmarked) [Example AA, 6-benzyloxy-1-[(E)-2-(5-benzyloxy-2-ethyl-4-methoxy-phenyl)vinyl]-7-methoxy-1,2,3,4-tetrahydroisoquinoline] is 1.7-fold higher in EC50: 87.2 nM for the first, 148 nM for the second.

First: CCCCOc1cc(/C=C/C2NCCc3cc(OCc4ccccc4)c(OC)cc32)c(C)cc1OC (centres unmarked) [BL, 6-Benzyloxy-1-[(E)-2-(5-butoxy-4-methoxy-2-methyl-phenyl)vinyl]-7-methoxy-1,2,3,4-tetrahydroisoquinoline]
Second: COc1cc2c(cc1OC)C(/C=C/c1cc(OCc3ccccc3)c(OC)cc1C)NCC2 (centres unmarked) [Example C, 1-[(E)-2-(5-Benzyloxy-4-methoxy-2-methyl-phenyl)vinyl]-6,7-dimethoxy-1,2,3,4-tetrahydroisoquinoline]
The EC50 of the first is 190-fold lower: 52 nM for the first, 9760 nM for the second. The first is the more potent here.

Going from CCCCOc1cc(/C=C/C2NCCc3cc(OCc4ccccc4)c(OC)cc32)ccc1OC (centres unmarked) [BE, 6-Benzyloxy-1-[(E)-2-(3-butoxy-4-methoxy-phenyl)vinyl]-7-methoxy-1,2,3,4-tetrahydroisoquinoline] to COc1ccc(/C=C/C2NCCc3cc(OCc4ccccc4)c(OC)cc32)cc1 (centres unmarked) [BJ, 6-Benzyloxy-7-methoxy-1-[(E)-2-(4-methoxyphenyl)vinyl]-1,2,3,4-tetrahydroisoquinoline], the EC50 rises from 99.8 nM to 477 nM (4.8-fold).

COc1cc2c(cc1OCc1ccccc1)CCNC2/C=C/c1ccccc1NC(=O)OC(C)(C)C (centres unmarked) [CW, tert-Butyl N-[2-[(E)-2-(6-benzyloxy-7-methoxy-1,2,3,4-tetrahydroisoquinolin-1-yl)vinyl]phenyl]carbamate] and COc1cc2c(cc1OCc1ccccc1)CCNC2/C=C/c1ccccc1N1CCCCC1 (centres unmarked) [DX, 6-(Benzyloxy)-7-methoxy-1-[(E)-2-[2-(piperidin-1-yl)phenyl]ethenyl]-1,2,3,4-tetrahydroisoquinoline] are within 1.5-fold of each other in EC50: 5400 nM for the first, 4200 nM for the second.

First: CCN1CCN(c2ccc(/C=C/C3NCCc4cc(OCc5ccccc5)c(OC)cc43)cc2)CC1 (centres unmarked) [DO, (E)-6-(benzyloxy)-1-(4-(4-ethylpyrazin-1-yl)styryl)-7-methoxy-1,2,3,4-tetrahydroisoquinoline]
Second: COc1cc2c(cc1OCc1ccccc1)CCNC2/C=C/c1ccncc1 (centres unmarked) [AW, 6-Benzyloxy-7-methoxy-1-[(E)-2-(4-pyridyl)vinyl]-1,2,3,4-tetrahydroisoquinoline]
The EC50 of the first is 6.6-fold lower: 496 nM for the first, 3280 nM for the second. The first is the more potent here.

Compared with COc1cc(C)c(CCC2NCCc3cc(OCc4ccccc4)c(OC)cc32)cc1OCc1ccccc1 (centres unmarked) [Example Q, 6-benzyloxy-1-[2-(5-benzyloxy-4-methoxy-2-methyl-phenyl)ethyl]-7-methoxy-1,2,3,4-tetrahydroisoquinoline], CCCCN1CCc2cc(OC)c(OCc3ccccc3)cc2C1/C=C/c1ccc(OCc2ccccc2)c(OC)c1 (centres unmarked) [Example D, 7-Benzyloxy-1-[(E)-2-(4-benzyloxy-3-methoxy-phenyl)vinyl]-2-butyl-6-methoxy-3,4-dihydro-1H-isoquinoline] is 6.6-fold higher in EC50: 1360 nM for the first, 8920 nM for the second.

Going from COc1cc2c(cc1OCc1ccccc1)CCNC2/C=C/c1cc(C)c(OC)c(C(F)(F)F)c1 (centres unmarked) [CZ, (E)-6-(benzyloxy)-7-methoxy-1-(4-methoxy-3-methyl-5-(trifluoromethyl)styryl)-1,2,3,4-tetrahydroisoquinoline] to COc1cc(F)c(/C=C/C2NCCc3cc(OCc4ccccc4)c(OC)cc32)c(F)c1 (centres unmarked) [BU, 6-Benzyloxy-1-[(E)-2-(2,6-difluoro-4-methoxy-phenyl)vinyl]-7-methoxy-1,2,3,4-tetrahydroisoquinoline], the EC50 falls from 2190 nM to 1020 nM (2.1-fold). The second is the more potent here.

COc1cc2c(cc1OCc1ccccc1)CCNC2/C=C/c1ccc(-c2cncnc2)cc1 (centres unmarked) [DS, 6-(Benzyloxy)-7-methoxy-1-[(E)-2-[4-(pyrimidin-5-yl)phenyl]ethenyl]-1,2,3,4-tetrahydroisoquinoline] and COc1cc2c(cc1OCc1ccccc1)CCNC2/C=C/c1ccc(OC)c2occc12 (centres unmarked) [Example AN, 6-Benzyloxy-7-methoxy-1-[(E)-2-(7-methoxybenzofuran-4-yl)vinyl]-1,2,3,4-tetrahydroisoquinoline] are within 1.5-fold of each other in EC50: 116 nM for the first, 140 nM for the second.

Compared with COc1cc2c(cc1OCc1ccccc1)CCNC2/C=C/c1c(C)ccc2c1OCCC2 (centres unmarked) [CC, 6-Benzyloxy-7-methoxy-1-[(E)-2-(7-methylchroman-8-yl)vinyl]-1,2,3,4-tetrahydroisoquinoline], COc1cc2c(cc1OCc1ccccc1)CCNC2/C=C/c1ccc(OC)c(C)c1C (centres unmarked) [EL, 6-Benzyloxy-7-methoxy-1-[(E)-2-(4-methoxy-2,3-dimethyl-phenyl)vinyl]-1,2,3,4-tetrahydroisoquinoline] is 7.9-fold lower in EC50: 1180 nM for the first, 150 nM for the second.

Going from COc1ccc(CCC2NCCc3cc(OC)c(OC)cc32)cc1OC (centres unmarked) [Example A, 1-[2-(3,4-Dimethoxyphenyl)ethyl]-6,7-dimethoxy-1,2,3,4-tetrahydroisoquinoline] to COc1cc(OC)c(/C=C/C2NCCc3cc(OCc4ccccc4)c(OC)cc32)cc1C (centres unmarked) [EH, 6-Benzyloxy-1-[(E)-2-(2,4-dimethoxy-5-methyl-phenyl)vinyl]-7-methoxy-1,2,3,4-tetrahydroisoquinolin], the EC50 falls from 10000 nM to 66 nM (150-fold).

With COc1cc2c(cc1OCc1ccccc1)CCNC2/C=C/c1ccc(OC)c2ccoc12 (centres unmarked) [Example AO, 6-Benzyloxy-7-methoxy-1-[(E)-2-(4-methoxybenzofuran-7-yl)vinyl]-1,2,3,4-tetrahydroisoquinoline] the EC50 was 1130 nM.
